Broadly, the EC50 is the concentration giving half of the maximal effect.

Assay [1] addresses T1, pig TRPM8 (Sus scrofa, UniProt F1SM15).
T1 construct: expressed in transfected cells; host or cells: CHO (pcDNA5/FRT/TO vector; hygromycin B and blasticidin selection)
In words: In vitro pig TRPM8 fluorescence calcium flux assay (recombinant CHO cells, Fluo4-AM, FDSS6000). The assay is classed as cell-based. The note with it: recombinant CHO cells expressing pig TRPM8; menthol-related EC50, normalized to 100 μM menthol. On the procedure:
(§1) In Vitro Pig and Human TRPM8 Fluorescence Calcium Flux Assays
(§2) For functional expression of TRPM8, the full-length cDNA encoding human (NM_024080) and pig (XM_001927892.1) TRPM8 sequences were subcloned into p658 and pcDNA5/FRT/TO mammalian expression vectors, respectively. Engineered recombinant CHO cell lines expressing human or pig TRPM8 were generated. Culture media was Ham-F12 with 10% FCS for both lines, and for the pig cell line only 400 μg/ml hygromycin B and 30 μg/mL blasticidin were added as selection antibiotics (all reagents were obtained from Invitrogen, Fisher Scientific). Cells were grown in culture flasks up to 80% confluence where they were harvested using accutase (Sigma, MO, USA) to detach the cells by enzymatic dissociation and either seeded directly into assay plates or cryopreserved for future use.
(§3) For calcium flux assays, cells were plated into clear base poly-D-lysine coated 384-well plates (BD Biosciences, NJ USA) at a density of 15,000 cells per well in appropriate culture medium and grown overnight. The following day, all medium was removed then the cells were incubated with 2 μM of Fluo4-AM Dye (Molecular Probes) prepared in complete HBSS assay buffer containing 20 mM HEPES, 0.1% BSA, and 2.5 mM probenecid at room temperature for one hour. Following incubation, plates were inserted into a FDSS6000 instrument (Hamamatsu, Photonics, Japan) instrument, where cells were challenged with compounds of the formula (at varying concentrations) and intracellular calcium was measured kinetically for 3 min after addition.
(§4) This protocol allowed the determination of an EC50 value, from the sixteen-point dose response data, for each compound of the formula tested. Maximal fluorescence intensity achieved upon addition of 100 μM menthol (stock solution prepared in ethanol from solid, Sigma-Aldrich) was exported from the FDSS and further analyzed using IDBS XLFit 5. Data were normalized to the average 100 μM menthol response (maximum control wells) included in each plate. The dose response curves from the average of wells for each data point were analyzed by using nonlinear regression of sigmoidal dose response (formula 205). Finally, the (menthol-related) EC50 values (Half maximal effective concentration) were calculated with the best-fit dose curve determined by IDBS XLFit 5 software.
(A change in cytosolic calcium serves as a functional read-out for many receptors and channels.)

The target of assay [2] is T2, human TRPM8 (Homo sapiens, UniProt Q7Z2W7).
T2 construct: expressed in transfected cells; host or cells: CHO (p658 mammalian expression vector)
As to the kind of experiment: In vitro human TRPM8 fluorescence calcium flux assay (recombinant CHO cells, Fluo4-AM, FDSS6000). The note with it: recombinant CHO cells expressing human TRPM8; menthol-related EC50, normalized to 100 μM menthol. Format: cell-based. Here is the method: as §1, §2, §3, §4

T2 sequence (Q7Z2W7 whole entry): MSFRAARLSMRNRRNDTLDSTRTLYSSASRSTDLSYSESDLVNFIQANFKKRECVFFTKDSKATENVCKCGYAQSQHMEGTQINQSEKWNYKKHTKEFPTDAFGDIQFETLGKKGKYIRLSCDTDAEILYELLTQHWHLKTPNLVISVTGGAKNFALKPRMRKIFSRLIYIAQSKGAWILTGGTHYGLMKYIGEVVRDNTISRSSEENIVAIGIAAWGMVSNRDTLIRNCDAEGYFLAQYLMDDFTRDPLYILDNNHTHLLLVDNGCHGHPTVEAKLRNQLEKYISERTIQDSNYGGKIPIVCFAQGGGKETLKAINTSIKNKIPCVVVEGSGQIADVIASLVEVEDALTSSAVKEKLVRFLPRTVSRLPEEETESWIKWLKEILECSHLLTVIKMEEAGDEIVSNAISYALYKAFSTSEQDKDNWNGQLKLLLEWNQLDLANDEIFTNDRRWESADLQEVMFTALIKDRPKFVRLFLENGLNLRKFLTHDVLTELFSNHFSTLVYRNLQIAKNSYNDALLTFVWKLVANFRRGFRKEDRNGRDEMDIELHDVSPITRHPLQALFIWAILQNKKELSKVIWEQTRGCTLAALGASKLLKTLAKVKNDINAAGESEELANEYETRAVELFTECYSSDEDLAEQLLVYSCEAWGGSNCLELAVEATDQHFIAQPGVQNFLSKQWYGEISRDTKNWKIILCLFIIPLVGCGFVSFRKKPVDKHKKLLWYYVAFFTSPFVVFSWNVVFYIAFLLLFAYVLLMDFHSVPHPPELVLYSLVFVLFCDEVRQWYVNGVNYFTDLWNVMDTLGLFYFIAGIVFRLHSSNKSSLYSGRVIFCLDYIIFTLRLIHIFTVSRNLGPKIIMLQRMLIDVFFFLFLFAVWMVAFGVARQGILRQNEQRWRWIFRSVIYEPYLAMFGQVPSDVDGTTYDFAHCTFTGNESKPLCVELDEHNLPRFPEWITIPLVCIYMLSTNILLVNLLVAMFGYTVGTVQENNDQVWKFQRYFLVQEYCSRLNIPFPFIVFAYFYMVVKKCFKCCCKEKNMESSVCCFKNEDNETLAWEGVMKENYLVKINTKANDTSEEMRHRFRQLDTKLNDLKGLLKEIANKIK
T1 sequence (F1SM15 1-1104): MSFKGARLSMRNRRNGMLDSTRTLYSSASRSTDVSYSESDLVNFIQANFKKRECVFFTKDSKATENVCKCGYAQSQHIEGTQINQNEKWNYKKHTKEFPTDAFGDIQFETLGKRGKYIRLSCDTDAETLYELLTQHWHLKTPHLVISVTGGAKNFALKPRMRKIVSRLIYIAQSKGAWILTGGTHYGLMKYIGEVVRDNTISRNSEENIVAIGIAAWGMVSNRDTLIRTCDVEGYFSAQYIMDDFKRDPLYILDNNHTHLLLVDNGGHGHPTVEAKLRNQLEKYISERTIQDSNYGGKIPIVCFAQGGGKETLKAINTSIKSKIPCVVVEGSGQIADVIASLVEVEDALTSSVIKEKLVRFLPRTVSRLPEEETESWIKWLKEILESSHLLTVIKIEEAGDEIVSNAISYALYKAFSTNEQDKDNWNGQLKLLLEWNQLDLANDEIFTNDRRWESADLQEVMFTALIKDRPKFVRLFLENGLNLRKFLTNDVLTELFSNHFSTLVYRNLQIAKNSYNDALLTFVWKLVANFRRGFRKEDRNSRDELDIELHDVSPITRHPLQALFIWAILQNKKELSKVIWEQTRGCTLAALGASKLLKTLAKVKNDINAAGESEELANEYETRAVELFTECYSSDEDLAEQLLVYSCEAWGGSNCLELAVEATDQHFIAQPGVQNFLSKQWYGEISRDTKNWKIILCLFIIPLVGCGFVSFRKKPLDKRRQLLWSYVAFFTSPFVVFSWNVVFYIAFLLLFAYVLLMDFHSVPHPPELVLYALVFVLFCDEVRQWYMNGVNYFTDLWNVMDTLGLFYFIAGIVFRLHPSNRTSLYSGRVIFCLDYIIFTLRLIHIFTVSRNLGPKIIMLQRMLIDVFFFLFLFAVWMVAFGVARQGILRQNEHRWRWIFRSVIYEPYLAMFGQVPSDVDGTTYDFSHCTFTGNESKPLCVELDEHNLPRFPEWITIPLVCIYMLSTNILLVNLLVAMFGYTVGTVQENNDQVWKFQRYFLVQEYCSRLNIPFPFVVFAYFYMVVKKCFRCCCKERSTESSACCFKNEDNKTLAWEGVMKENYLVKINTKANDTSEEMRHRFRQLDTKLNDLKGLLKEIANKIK

Turning to `[2H]C(O)(CNC(=O)[C@]1(O)C[C@H](C)CC[C@H]1C(C)C)c1ccccc1` (single isomer, unassigned) [Example 92], the EC50 in assay [1] turned out to be 2.3 nM; in assay [2], 4.1 nM.

As to `CC(C)[C@@H]1CC[C@@H](C)C[C@@]1(O)C(=O)NCC(=O)c1ccc(O)cc1O` [Example 102, (1S,2S,5R)—N-(2-(2,4-dihydroxyphenyl)-2-oxoethyl)-1-hydroxy-2-isopropyl-5-methylcyclohexane-1-carboxamide], the EC50 in assay [1] stood at 69 nM; in assay [2], 42 nM.

`Cc1ccc(CCNC(=O)[C@]2(O)C[C@H](C)CC[C@H]2C(C)C)cc1` [Example 60, (1S,2S,5R)-1-hydroxy-2-isopropyl-5-methyl-N-(4-methylphenethyl)cyclohexane-1-carboxamide]: the EC50 in assay [1] was 7.1 nM; in assay [2], 43.5 nM.

Turning to `CC(C)[C@@H]1CC[C@@H](C)C[C@@]1(O)C(=O)NCC(=O)Oc1cc(O)cc(O)c1` [Example 76, 3,5-dihydroxyphenyl ((1S,2S,5R)-1-hydroxy-2-isopropyl-5-methylcyclohexane-1-carbonyl)glycinate], the EC50 in assay [1] worked out at 365 nM; in assay [2] it was 501 nM.

For the compound `CC(=O)NCCOc1ccccc1CCNC(=O)[C@]1(O)C[C@H](C)CC[C@H]1C(C)C` [Example 84, (1S,2S,5R)—N-(2-(2-acetamidoethoxy)phenethyl)-1-hydroxy-2-isopropyl-5-methylcyclohexane-1-carboxamide], the EC50 in assay [1] came to 141 nM; in assay [2], 143 nM.

`COc1cc(CCNC(=O)[C@]2(O)C[C@H](C)CC[C@H]2C(C)C)cc(OC)c1` [Example 123, (1S,2S,5R)-N-[2-(3,5-dimethoxyphenyl)ethyl]-1-hydroxy-2-isopropyl-5-methyl-cyclohexanecarboxamide]: the EC50 in assay [1] is 229 nM; in assay [2] it was 334 nM.

Turning to `CC(C)[C@@H]1CC[C@@H](C)C[C@@]1(O)C(=O)NCc1cccc(CO)c1` [Example 161, (1S,2S,5R)-1-hydroxy-N-[[3-(hydroxymethyl)phenyl]methyl]-2-isopropyl-5-methyl-cyclohexanecarboxamide], the EC50 in assay [1] came to 516 nM; in assay [2] it was 882 nM.

Take `CC(C)[C@@H]1CC[C@@H](C)C[C@@]1(O)C(=O)NCCc1cccc(CCC(=O)O)c1` [Example 87, 3-(3-(2-((1S,2S,5R)-1-hydroxy-2-isopropyl-5-methylcyclohexane-1-carboxamido)ethyl)phenyl)propanoic acid]: the EC50 stood at 259 nM in assay [1] and 982 nM in assay [2].

As for `COc1cccc(CCNC(=O)[C@]2(O)C[C@H](C)CC[C@H]2C(C)C)c1OC` [Example 115, (1S,2S,5R)-N-[2-(2,3-dimethoxyphenyl)ethyl]-1-hydroxy-2-isopropyl-5-methyl-cyclohexanecarboxamide], the EC50 in assay [1] is 362 nM; in assay [2] it was 786 nM.

Turning to `COC(=O)Cc1ccccc1CCNC(=O)[C@]1(O)C[C@H](C)CC[C@H]1C(C)C` [Example 77, methyl 2-(2-(2-((1S,2S,5R)-1-hydroxy-2-isopropyl-5-methylcyclohexane-1-carboxamido)ethyl)phenyl)acetate], the figures for the EC50 in assay [1] and in assay [2] were 93 nM and 90 nM, respectively.

For the compound `COc1ccc(CCNC(=O)[C@]2(O)C[C@H](C)CC[C@H]2C(C)C)cc1O` [Example 126, (1S,2S,5R)-1-hydroxy-N-[2-(3-hydroxy-4-methoxy-phenyl)ethyl]-2-isopropyl-5-methyl-cyclohexanecarboxamide], the EC50 in assay [1] was determined as 25.7 nM; in assay [2], 92.5 nM.

For `COc1ccc(OC)c(CCNC(=O)[C@]2(O)C[C@H](C)CC[C@H]2C(C)C)c1` [Example 128, (1S,2S,5R)-N-[2-(2,5-dimethoxyphenyl)ethyl]-1-hydroxy-2-isopropyl-5-methyl-cyclohexanecarboxamide], the concentration giving a half-maximal response (EC50) in assay [1] is 212 nM; in assay [2], 303 nM.

Take `COc1cccc(C(F)(F)CNC(=O)[C@]2(O)C[C@H](C)CC[C@H]2C(C)C)c1` [Example 188, (1S,2S,5R)—N-[2,2-difluoro-2-(3-methoxyphenyl)ethyl]-1-hydroxy-2-isopropyl-5-methyl-cyclohexanecarboxamide]: the EC50 was 24.1 nM in assay [1] and 76.2 nM in assay [2].

For the compound `Cc1ccccc1CCNC(=O)[C@]1(O)C[C@H](C)CC[C@H]1C(C)C` [Example 59, (1S,2S,5R)-1-hydroxy-2-isopropyl-5-methyl-N-(2-methylphenethyl)cyclohexane-1-carboxamide], the EC50 was 4.3 nM in assay [1] and 6.2 nM in assay [2].

As for `CC(C)[C@@H]1CC[C@@H](C)C[C@@]1(O)C(=O)NCC(=O)c1ccccc1Cl` [Example 140, (1S,2S,5R)-N-[2-(2-chlorophenyl)-2-oxo-ethyl]-1-hydroxy-2-isopropyl-5-methyl-cyclohexanecarboxamide], the 50% effective concentration (EC50) stood at 3.3 nM in assay [1] and 9.4 nM in assay [2].

`COC(=O)CCOc1ccccc1CCNC(=O)[C@]1(O)C[C@H](C)CC[C@H]1C(C)C` [Example 75, methyl 3-(2-(2-((1S,2S,5R)-1-hydroxy-2-isopropyl-5-methylcyclohexane-1-carboxamido)ethyl)phenoxy)propanoate]: the EC50 is 109 nM in assay [1] and 84 nM in assay [2].

With `COc1ccc(C(=O)CNC(=O)[C@]2(O)C[C@H](C)CC[C@H]2C(C)C)cc1` [Example 121, (1S,2S,5R)-1-hydroxy-2-isopropyl-N-[2-(4-methoxyphenyl)-2-oxo-ethyl]-5-methyl-cyclohexanecarboxamide], the EC50 was 4.9 nM in assay [1] and 18.7 nM in assay [2].

`CC(C)[C@@H]1CC[C@@H](C)C[C@@]1(O)C(=O)N[C@@H](CO)Cc1ccccc1` [Example 47, (1S,2S,5R)-1-hydroxy-N-((2R)-1-hydroxy-3-phenylpropan-2-yl)-2-isopropyl-5-methylcyclohexane-1-carboxamide]: the EC50 in assay [1] was determined as 586 nM; in assay [2] it was 641 nM.

As to `Cc1cccc([C@@H](O)CNC(=O)[C@]2(O)C[C@H](C)CC[C@H]2C(C)C)c1` [Example 45, (1S,2S,5R)-1-hydroxy-N-((2R)-hydroxy-2-(m-tolyl)ethyl)-2-isopropyl-5-methylcyclohexane-1-carboxamide], the EC50 in assay [1] came out at 18.2 nM; in assay [2], 48.5 nM.

As for `CC(C)[C@@H]1CC[C@@H](C)C[C@@]1(O)C(=O)NCC(O)(c1ccccc1)C(F)(F)F` (single isomer, unassigned) [Example 82], the EC50 was 486 nM in assay [1] and 332 nM in assay [2].

For `CC(C)[C@@H]1CC[C@@H](C)C[C@@]1(O)C(=O)NCCc1nc2ccccc2[nH]1` [Example 8, (1S,2S,5R)—N-(2-(1H-benzo[d]imidazol-2-yl)ethyl)-1-hydroxy-2-isopropyl-5-methylcyclohexane-1-carboxamide 2-hydroxypropane-1,2,3-tricarboxylate], the figures for the EC50 in assay [1] and in assay [2] were 713 nM and 1510 nM, respectively.

Turning to `CC(C)[C@@H]1CC[C@@H](C)C[C@@]1(O)C(=O)NCc1cccc(O)c1` [Example 165, (1S,2S,5R)-1-hydroxy-N-[(3-hydroxyphenyl)methyl]-2-isopropyl-5-methyl-cyclohexanecarboxamide], the results for the EC50 in assay [1] and in assay [2] were 369 nM and 330 nM, respectively.

For `CC(C)[C@@H]1CC[C@@H](C)C[C@@]1(O)C(=O)NCCc1ccc(O)c([N+](=O)[O-])c1` [Example 166, (1S,2S,5R)-1-hydroxy-N-[2-(4-hydroxy-3-nitro-phenyl)ethyl]-2-isopropyl-5-methyl-cyclohexanecarboxamide], the EC50 in assay [1] is 15.2 nM; in assay [2], 16.6 nM.

For the compound `CC(C)[C@@H]1CC[C@@H](C)C[C@@]1(O)C(=O)NCC(O)c1ccccc1F` (stereo partly drawn) [Example 157, (1S,2S,5R)-N-[2-(2-fluorophenyl)-2-hydroxy-ethyl]-1-hydroxy-2-isopropyl-5-methyl-cyclohexanecarboxamide], the EC50 in assay [1] came to 4.7 nM; in assay [2], 8.4 nM.

As for `COC(=O)CC(CNC(=O)[C@]1(O)C[C@H](C)CC[C@H]1C(C)C)c1ccccc1` (stereo partly drawn) [Example 65, methyl 4-((1S,2S,5R)-1-hydroxy-2-isopropyl-5-methylcyclohexane-1-carboxamido)-3-phenyl butanoate], the EC50 was 729 nM in assay [1] and 353 nM in assay [2].

Regarding `CC(C)[C@@H]1CC[C@@H](C)C[C@@]1(O)C(=O)NCC1(O)CCCc2ccccc21` (mixture of isomers) [Example 177, (1S,2S,5R)-1-hydroxy-N-(((1RS)-hydroxy-1,2,3,4-tetrahydronaphthalen-1-yl)methyl)-2-isopropyl-5-methylcyclohexane-1-carboxamide], the results for the EC50 in assay [1] and in assay [2] were 3.4 nM and 3.6 nM, respectively.

These data come from patent US20240124408A1 (Sanofi, priority 2020, published 2024).
